Reference: ChEMBL document CHEMBL4507276 (2021)

Key:
[1] = system: Tyrosine-protein kinase ABL1 (Homo sapiens), P00519 [H396P]; conditions: Compound concentration 1000.0 nM
[2] = target: Cyclin-dependent kinase 4 (Homo sapiens) (UniProt P11802); conditions: Compound concentration 1000.0 nM
[3] = target: Casein kinase II subunit alpha (Homo sapiens) (UniProt P68400); conditions: Compound concentration 1000.0 nM
[4] = target: Epidermal growth factor receptor (Homo sapiens) (UniProt P00533); conditions: Compound concentration 1000.0 nM
[5] = target: T1, Ephrin type-A receptor 1 (Homo sapiens) (UniProt P21709); conditions: Compound concentration 1000.0 nM
T1 sequence (whole entry): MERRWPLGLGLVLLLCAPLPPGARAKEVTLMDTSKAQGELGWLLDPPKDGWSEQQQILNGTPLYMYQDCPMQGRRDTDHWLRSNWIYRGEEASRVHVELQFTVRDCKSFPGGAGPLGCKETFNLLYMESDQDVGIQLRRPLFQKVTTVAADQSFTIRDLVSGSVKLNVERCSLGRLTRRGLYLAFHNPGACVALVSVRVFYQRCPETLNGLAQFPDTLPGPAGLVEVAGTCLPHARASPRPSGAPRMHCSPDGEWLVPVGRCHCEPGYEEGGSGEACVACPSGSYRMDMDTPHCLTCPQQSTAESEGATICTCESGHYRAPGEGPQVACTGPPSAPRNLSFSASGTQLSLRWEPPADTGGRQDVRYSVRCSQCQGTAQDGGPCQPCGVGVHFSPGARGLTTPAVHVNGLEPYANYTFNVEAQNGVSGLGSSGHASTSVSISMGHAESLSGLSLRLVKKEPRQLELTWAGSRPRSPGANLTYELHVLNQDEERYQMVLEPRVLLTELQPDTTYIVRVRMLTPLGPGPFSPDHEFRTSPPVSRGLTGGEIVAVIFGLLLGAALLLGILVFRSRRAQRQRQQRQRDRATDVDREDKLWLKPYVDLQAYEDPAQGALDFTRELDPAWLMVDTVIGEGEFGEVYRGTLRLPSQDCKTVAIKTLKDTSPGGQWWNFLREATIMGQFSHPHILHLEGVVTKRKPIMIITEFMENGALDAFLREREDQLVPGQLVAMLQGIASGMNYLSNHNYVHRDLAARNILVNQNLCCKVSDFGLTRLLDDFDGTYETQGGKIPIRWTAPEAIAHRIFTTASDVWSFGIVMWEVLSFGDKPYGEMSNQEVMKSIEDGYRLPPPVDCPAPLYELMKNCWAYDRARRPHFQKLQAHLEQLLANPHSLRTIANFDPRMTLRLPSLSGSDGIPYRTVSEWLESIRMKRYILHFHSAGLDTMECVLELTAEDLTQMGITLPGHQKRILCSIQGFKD

[6] = target: Homeodomain-interacting protein kinase 3 (Homo sapiens) (UniProt Q9H422); conditions: Compound concentration 1000.0 nM
[7] = target: Mitogen-activated protein kinase 8 (Homo sapiens) (UniProt P45983); conditions: Compound concentration 1000.0 nM
[8] = target: Mitogen-activated protein kinase kinase kinase 10 (Homo sapiens) (UniProt Q02779); conditions: Compound concentration 1000.0 nM
[9] = target: Platelet-derived growth factor receptor beta (Homo sapiens) (UniProt P09619); conditions: Compound concentration 1000.0 nM
[10] = target: SRSF protein kinase 2 (Homo sapiens) (UniProt P78362); conditions: Compound concentration 1000.0 nM
[11] = target: T2, Dual specificity protein kinase TTK (Homo sapiens) (UniProt P33981); conditions: Compound concentration 1000.0 nM
T2 sequence (whole entry): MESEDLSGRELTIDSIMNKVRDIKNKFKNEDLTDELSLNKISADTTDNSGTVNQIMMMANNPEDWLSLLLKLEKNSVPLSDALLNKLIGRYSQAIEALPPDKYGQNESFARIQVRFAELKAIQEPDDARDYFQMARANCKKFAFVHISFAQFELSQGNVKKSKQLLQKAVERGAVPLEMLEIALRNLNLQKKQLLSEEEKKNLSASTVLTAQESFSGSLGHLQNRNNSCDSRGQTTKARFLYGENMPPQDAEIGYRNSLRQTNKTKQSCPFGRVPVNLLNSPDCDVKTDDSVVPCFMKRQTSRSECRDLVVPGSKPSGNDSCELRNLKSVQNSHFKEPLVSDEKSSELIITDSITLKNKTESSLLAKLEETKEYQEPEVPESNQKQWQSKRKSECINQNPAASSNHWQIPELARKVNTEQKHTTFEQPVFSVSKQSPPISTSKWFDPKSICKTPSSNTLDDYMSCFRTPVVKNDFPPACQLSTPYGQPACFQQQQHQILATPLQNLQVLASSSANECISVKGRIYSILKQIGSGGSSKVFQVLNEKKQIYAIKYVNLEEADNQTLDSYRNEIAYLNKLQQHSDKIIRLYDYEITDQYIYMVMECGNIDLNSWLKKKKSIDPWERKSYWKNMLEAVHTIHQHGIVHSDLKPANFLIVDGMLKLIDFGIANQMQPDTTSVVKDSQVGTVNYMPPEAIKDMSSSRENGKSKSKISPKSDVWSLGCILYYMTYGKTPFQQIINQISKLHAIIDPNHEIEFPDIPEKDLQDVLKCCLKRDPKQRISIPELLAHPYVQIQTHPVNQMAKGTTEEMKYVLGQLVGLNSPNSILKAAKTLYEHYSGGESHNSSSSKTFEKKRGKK

[12] = target: T3, 5-hydroxytryptamine receptor 3A (Homo sapiens) (UniProt P46098); conditions: Compound concentration 10.0 uM
T3 sequence (whole entry): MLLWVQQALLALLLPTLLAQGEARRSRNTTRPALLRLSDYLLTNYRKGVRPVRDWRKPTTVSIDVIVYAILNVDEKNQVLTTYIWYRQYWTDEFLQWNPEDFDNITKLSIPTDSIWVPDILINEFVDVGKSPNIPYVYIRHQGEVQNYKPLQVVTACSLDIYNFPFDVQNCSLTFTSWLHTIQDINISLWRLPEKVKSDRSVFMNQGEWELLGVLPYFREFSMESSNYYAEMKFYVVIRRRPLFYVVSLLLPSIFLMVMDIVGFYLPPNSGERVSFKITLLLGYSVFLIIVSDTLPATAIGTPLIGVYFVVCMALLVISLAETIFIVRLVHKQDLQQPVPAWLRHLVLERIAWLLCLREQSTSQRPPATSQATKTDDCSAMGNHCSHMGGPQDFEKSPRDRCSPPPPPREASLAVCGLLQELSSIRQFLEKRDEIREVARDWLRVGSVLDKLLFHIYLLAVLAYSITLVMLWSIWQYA

Chain of SRSF protein kinase 2 (Homo sapiens) (P78362 whole entry, looked up): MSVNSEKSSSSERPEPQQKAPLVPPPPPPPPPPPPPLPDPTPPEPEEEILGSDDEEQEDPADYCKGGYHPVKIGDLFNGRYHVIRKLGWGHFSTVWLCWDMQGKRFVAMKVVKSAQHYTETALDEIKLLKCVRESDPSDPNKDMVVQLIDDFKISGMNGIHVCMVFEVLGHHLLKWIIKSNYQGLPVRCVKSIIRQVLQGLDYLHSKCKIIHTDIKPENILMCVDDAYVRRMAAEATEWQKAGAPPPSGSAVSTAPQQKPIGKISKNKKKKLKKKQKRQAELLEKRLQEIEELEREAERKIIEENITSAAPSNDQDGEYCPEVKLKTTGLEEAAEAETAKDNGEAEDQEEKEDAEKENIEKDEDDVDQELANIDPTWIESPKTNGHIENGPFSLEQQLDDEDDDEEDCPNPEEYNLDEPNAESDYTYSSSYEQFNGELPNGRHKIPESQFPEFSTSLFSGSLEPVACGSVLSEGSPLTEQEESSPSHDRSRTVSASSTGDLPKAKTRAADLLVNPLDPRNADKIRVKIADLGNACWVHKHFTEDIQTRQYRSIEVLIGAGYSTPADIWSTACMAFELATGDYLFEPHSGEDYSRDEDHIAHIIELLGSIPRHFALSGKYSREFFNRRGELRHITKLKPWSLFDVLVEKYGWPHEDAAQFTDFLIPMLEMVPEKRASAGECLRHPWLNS
Chain of Casein kinase II subunit alpha (Homo sapiens) (P68400 whole entry, looked up): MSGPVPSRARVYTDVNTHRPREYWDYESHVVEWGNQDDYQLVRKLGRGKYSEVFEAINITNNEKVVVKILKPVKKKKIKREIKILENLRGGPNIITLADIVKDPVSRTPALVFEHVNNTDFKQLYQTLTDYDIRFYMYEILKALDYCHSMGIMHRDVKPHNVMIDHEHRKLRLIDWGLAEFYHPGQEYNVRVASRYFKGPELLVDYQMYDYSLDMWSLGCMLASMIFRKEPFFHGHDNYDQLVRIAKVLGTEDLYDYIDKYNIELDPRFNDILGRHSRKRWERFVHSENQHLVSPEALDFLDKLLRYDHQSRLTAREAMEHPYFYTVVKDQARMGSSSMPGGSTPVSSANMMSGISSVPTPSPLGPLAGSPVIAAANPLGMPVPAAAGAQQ
Chain of Epidermal growth factor receptor (Homo sapiens) (P00533 whole entry): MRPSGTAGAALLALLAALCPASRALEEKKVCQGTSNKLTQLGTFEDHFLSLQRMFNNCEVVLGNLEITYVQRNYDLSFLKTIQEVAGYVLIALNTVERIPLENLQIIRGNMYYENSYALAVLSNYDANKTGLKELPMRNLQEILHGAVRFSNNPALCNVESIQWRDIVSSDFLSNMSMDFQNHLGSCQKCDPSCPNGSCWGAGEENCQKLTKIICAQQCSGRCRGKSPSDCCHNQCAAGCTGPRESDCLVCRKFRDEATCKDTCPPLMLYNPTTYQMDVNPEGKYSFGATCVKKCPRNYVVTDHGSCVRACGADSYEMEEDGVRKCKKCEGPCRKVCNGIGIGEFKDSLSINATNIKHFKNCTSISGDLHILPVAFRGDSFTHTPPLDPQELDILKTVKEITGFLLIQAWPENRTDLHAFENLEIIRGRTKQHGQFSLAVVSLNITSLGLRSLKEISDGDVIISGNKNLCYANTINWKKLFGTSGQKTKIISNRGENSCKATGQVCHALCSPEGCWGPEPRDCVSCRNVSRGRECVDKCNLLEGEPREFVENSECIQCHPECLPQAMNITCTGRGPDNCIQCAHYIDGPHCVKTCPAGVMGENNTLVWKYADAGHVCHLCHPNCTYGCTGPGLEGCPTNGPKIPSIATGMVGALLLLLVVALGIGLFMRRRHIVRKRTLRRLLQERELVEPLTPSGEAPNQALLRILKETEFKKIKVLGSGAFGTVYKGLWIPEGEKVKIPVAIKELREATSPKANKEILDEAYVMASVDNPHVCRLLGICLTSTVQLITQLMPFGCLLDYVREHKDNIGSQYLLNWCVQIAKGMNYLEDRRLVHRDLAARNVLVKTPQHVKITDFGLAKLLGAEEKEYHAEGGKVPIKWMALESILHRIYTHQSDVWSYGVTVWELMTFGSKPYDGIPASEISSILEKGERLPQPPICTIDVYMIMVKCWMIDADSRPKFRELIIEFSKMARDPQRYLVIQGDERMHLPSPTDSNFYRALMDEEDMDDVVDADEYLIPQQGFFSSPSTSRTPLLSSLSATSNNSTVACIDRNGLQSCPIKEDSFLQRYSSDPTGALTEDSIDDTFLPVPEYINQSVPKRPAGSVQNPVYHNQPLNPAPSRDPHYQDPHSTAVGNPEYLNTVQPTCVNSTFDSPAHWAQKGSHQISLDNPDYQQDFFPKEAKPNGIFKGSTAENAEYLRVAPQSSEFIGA
Chain of Cyclin-dependent kinase 4 (Homo sapiens) (P11802 whole entry): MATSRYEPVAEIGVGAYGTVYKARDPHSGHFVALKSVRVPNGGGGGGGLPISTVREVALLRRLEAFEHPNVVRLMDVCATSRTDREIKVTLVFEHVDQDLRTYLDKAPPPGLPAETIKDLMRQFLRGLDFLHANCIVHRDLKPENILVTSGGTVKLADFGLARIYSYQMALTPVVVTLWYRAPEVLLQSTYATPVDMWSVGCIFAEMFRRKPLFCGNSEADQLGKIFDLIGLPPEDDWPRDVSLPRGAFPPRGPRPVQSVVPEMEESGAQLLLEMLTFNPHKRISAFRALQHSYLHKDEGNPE
Chain of Homeodomain-interacting protein kinase 3 (Homo sapiens) (Q9H422 whole entry, looked up): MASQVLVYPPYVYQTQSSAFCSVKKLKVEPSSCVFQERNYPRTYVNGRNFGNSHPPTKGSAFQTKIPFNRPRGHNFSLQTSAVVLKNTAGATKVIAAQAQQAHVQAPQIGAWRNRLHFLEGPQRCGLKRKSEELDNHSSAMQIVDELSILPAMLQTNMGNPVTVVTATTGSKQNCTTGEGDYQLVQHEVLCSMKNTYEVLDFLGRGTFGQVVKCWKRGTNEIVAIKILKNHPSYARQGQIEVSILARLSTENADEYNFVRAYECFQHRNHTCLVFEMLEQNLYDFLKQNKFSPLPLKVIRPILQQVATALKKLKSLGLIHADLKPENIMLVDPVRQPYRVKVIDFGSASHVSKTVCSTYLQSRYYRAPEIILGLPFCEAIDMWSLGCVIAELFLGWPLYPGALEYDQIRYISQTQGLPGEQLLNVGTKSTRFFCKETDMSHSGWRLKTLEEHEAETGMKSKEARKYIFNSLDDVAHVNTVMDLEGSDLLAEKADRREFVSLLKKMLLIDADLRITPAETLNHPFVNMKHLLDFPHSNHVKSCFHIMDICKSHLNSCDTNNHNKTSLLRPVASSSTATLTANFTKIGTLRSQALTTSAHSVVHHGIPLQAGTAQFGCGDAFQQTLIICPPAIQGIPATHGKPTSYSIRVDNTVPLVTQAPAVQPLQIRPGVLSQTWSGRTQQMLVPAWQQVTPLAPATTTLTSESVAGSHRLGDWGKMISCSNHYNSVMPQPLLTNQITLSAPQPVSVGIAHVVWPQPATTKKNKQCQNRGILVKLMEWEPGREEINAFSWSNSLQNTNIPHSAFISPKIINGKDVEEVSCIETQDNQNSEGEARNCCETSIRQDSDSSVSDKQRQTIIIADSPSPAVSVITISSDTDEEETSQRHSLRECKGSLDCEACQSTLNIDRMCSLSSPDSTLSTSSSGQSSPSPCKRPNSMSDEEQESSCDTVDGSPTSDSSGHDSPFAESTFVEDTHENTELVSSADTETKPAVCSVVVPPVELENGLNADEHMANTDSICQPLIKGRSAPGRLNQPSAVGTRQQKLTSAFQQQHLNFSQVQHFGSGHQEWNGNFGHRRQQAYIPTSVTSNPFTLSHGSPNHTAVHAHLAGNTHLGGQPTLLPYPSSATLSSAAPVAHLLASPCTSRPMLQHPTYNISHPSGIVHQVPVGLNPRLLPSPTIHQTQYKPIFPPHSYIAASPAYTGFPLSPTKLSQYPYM
Chain of Platelet-derived growth factor receptor beta (Homo sapiens) (P09619 whole entry): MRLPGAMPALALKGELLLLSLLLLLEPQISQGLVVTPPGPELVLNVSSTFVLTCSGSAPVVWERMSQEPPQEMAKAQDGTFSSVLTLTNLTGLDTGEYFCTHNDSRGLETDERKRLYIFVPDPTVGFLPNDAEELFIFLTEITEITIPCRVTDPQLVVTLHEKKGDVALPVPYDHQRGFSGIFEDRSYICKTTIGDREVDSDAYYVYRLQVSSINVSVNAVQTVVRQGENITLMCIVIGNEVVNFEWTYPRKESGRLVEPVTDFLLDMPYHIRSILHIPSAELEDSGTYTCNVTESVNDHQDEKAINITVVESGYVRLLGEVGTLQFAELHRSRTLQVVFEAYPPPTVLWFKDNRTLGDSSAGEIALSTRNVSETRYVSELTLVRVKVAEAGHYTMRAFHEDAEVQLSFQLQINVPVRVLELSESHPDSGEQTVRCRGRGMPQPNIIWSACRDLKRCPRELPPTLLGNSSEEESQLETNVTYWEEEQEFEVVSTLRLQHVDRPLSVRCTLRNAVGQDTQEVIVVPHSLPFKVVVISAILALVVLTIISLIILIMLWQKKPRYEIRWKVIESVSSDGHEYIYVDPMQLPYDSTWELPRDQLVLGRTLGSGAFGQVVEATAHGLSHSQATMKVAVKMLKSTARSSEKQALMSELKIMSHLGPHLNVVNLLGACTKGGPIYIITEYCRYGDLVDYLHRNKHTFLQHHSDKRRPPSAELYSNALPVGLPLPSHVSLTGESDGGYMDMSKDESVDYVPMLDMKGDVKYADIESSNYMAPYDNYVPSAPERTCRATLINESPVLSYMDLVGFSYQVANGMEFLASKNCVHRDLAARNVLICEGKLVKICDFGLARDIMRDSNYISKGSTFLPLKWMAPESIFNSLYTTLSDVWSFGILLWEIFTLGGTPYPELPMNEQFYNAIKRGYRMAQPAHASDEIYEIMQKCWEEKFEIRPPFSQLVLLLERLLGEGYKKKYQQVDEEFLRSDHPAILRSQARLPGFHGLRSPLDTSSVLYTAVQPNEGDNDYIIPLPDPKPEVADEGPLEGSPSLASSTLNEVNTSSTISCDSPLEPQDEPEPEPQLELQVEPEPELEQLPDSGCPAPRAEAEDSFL

CN(C)C(=O)Cn1cc(-c2nc(C3(c4ccc(-c5cnc(N)nc5)cc4)CC3)no2)cn1 [BI 0153]
inactive: residual activity [1] 100% | residual activity [2] 67% | residual activity [3] 73% | residual activity [4] 93% | residual activity [5] 100% | residual activity [6] 71% | residual activity [7] 78% | residual activity [8] 62% | residual activity [9] 94% | residual activity [10] 91% | residual activity [11] 100% | inhibition [12] -8.52%

CN(C)C(=O)Cn1cc(-c2nc([C@@](C)(c3ccc(-c4cnc(N)nc4)cc3)C3CC3)no2)cn1 [BI 665915]
inactive: residual activity [1] 76% | residual activity [2] 94% | residual activity [3] 88% | residual activity [4] 93% | residual activity [5] 97% | residual activity [6] 97% | residual activity [7] 51% | residual activity [8] 83% | residual activity [9] 82% | residual activity [10] 100% | residual activity [11] 100% | inhibition [12] -2.76%
